Experimental data from ChEMBL document CHEMBL4308851, “Alkyl-guanidine Compounds as Potent Broad-Spectrum Antibacterial Agents: Chemical Library Extension and Biological Characterization” (J Med Chem, 2018).
In brackets after ≈: the same amount, converted by molar mass. One block for each compound: values may come before it. Activity calls are given as the source filed them. No cut-off for these calls is given here.

Assays:
in vitro [1] = conditions: human, Caco-2
Description: Apparent permeability across apical to basolateral side in human Caco2 cells at 10 uM after 120 mins by LC-MS/MS analysis

Acinetobacter baumannii [2] = experiment: Disruption of inner membrane integrity in Acinetobacter baumannii ATCC 19606 co-expressing pMP2200::PrrnB plasmid assessed as induction of […] conversion at 256 ug/ml measured at 10 mins intervals for 1 hr; type: functional, organism-based; conditions: ATCC 19606 = CIP 70.34 = JCM 6841
Albumin [3] = target: T1, Albumin (Homo sapiens, UniProt P02768); experiment: Binding affinity to human serum albumin assessed as Bmax after 30 mins by fluorescence-based assay; type: ADME; conditions: isolated protein, 0.5 h
Acinetobacter baumannii [4] = experiment: Antibiofilm activity against Acinetobacter baumannii ATCC 19606 at half MIC concentration after 24 hrs by crystal violet-based assay; type: functional, organism-based; conditions: ATCC 19606 = CIP 70.34 = JCM 6841
Escherichia coli [5] = experiment: Antibiofilm activity against Escherichia coli MG1655 ATCC 47076 assessed as effect on biofilm 3D structures at half MIC concentration after 24 hrs by AO-staining based confocal microscopy; type: functional, organism-based; conditions: K-12 substr. MG1655 ATCC 47076
Staphylococcus aureus = experiment: Antibacterial activity against Staphylococcus aureus ATCC 25923 after 18 hrs by microdilution broth method; type: functional; conditions: ATCC 25923, 18 h
Escherichia coli [6] = experiment: Antibacterial activity against Escherichia coli CCUG deficient in potD gene; type: functional, organism-based
[7] = Apparent permeability of the compound after 5 hrs by PAMPA; type: ADME
Escherichia coli [8] = experiment: Antibacterial activity against Escherichia coli CCUG after 18 hrs by microdilution broth method
Escherichia coli [9] = experiment: Antibacterial activity against Escherichia coli MG1655 cultured in MHB supplemented with 10% human serum assessed as reduction in bacterial growth at 1 ug/ml after 24 hrs; type: functional, organism-based; conditions: K-12 substr. MG1655
[10] = Hemolytic activity against human erythrocytes assessed as induction of hemolysis at 64 ug/ml after 30 mins; type: cell-based, Erythrocyte; conditions: read-out: Activity
Escherichia coli [11] = experiment: Ratio of MIC for Escherichia coli MG1655 cultured in MHB supplemented with 10% human serum after 24 hrs to MIC for Escherichia coli MG1655 cultured in absence of 10% human serum; type: functional, K-12 substr. MG1655
Streptococcus pyogenes = experiment: Antibacterial activity against Streptococcus pyogenes ATCC 12344 after 18 hrs by microdilution broth method; type: functional; conditions: ATCC 12344, 18 h
Escherichia coli [12] = experiment: Antibacterial activity against Escherichia coli CCUG deficient in potI gene; type: functional, organism-based
Enterococcus faecalis = experiment: Antibacterial activity against Enterococcus faecalis ATCC 19433 after 18 hrs by microdilution broth method; type: functional; conditions: ATCC 19433, 18 h
Acinetobacter baumannii [13] = experiment: Antibacterial activity against Acinetobacter baumannii ATCC 17978 after 18 hrs by microdilution broth method; type: functional; conditions: ATCC 17978, 18 h
[14] = 1-Octanol/Tris buffer distribution coefficient, log D of the compound at pH 7.4 by HPLC analysis; type: physicochemical
Escherichia coli [15] = experiment: Antibacterial activity against Escherichia coli MG1655 cultured in MHB supplemented with 5 to 40 mg/ml at 1 to 2 ug/ml after 24 hrs; type: functional, organism-based; conditions: K-12 substr. MG1655
Klebsiella pneumoniae [16] = experiment: Antibacterial activity against Klebsiella pneumoniae isolate SI-081 after 18 hrs by microdilution broth method; type: functional; conditions: isolate SI-081, 18 h
Bacillus spizizenii = experiment: Antibacterial activity against Bacillus subtilis ATCC 6633 after 18 hrs by microdilution broth method; type: functional; conditions: ATCC 6633, 18 h
[17] = Binding affinity to AGP (unknown origin) assessed as dissociation constant after 30 mins by fluorescence-based assay; type: ADME, Homo sapiens
Escherichia coli [18] = experiment: Antibacterial activity against Escherichia coli CCUG deficient in potA gene; type: functional, organism-based
Acinetobacter baumannii [19] = experiment: Antibiofilm activity against Acinetobacter baumannii ATCC 19606 assessed as effect on biofilm 3D structures at half MIC concentration after 24 hrs by AO-staining based confocal microscopy; type: functional, organism-based; conditions: ATCC 19606 = CIP 70.34 = JCM 6841
Escherichia coli [20] = experiment: Disruption of inner membrane integrity in Escherichia coli MG1655 assessed as induction of […] conversion at 256 ug/ml measured at 10 mins intervals for 1 hr; type: functional, organism-based; conditions: K-12 substr. MG1655
Burkholderia cepacia = experiment: Antibacterial activity against Burkholderia cepacia isolate SI-R2 after 18 hrs by microdilution broth method; type: functional; conditions: isolate SI-R2, 18 h
Escherichia coli [21] = experiment: Antibacterial activity against Escherichia coli CCUG deficient in potB gene; type: functional, organism-based
Escherichia coli [22] = experiment: Induction of cytoplasmic membrane depolarization in Escherichia coli at 16 ug/ml by DiSC3-5-fluorescence based assay
Pseudomonas aeruginosa [23] = experiment: Antibacterial activity against Pseudomonas aeruginosa ATCC 27853 after 18 hrs by microdilution broth method; type: functional; conditions: ATCC 27853, 18 h
[24] = Metabolic stability in human liver microsomes at 50 uM after 60 mins in presence of NADPH by LC-UV-MS analysis; type: ADME, Microsome; conditions: read-out: Stability
Enterobacter cloacae = experiment: Antibacterial activity against Enterobacter cloacae isolate VA-417/02 after 18 hrs by microdilution broth method; type: functional; conditions: isolate VA-417/02, 18 h
Escherichia coli [25] = experiment: Antibacterial activity against Escherichia coli CCUG deficient in potH gene; type: functional, organism-based
Escherichia coli [26] = experiment: Antibacterial activity against Escherichia coli CCUG deficient in potG gene; type: functional, organism-based
Escherichia coli [27] = experiment: Antibacterial activity against Escherichia coli CCUG deficient in potF gene; type: functional, organism-based
Klebsiella pneumoniae [28] = experiment: Antibacterial activity against Klebsiella pneumoniae ATCC […] after 18 hrs by microdilution broth method; type: functional
[29] = Binding affinity to AGP (unknown origin) assessed as Bmax after 30 mins by fluorescence-based assay; type: ADME; conditions: human, isolated protein, 0.5 h
Acinetobacter baumannii [30] = experiment: Antibacterial activity against Acinetobacter baumannii isolate AC-54/97 after 18 hrs by microdilution broth method; type: functional; conditions: isolate AC-54/97, 18 h
Escherichia coli [31] = experiment: Bactericidal activity against Escherichia coli CCUG assessed as log reduction in CFU at 2 times MIC concentration after 1 hr by time kill assay; type: functional
Pseudomonas aeruginosa [32] = experiment: Antibiofilm activity against Pseudomonas aeruginosa PAO1 ATCC 15692 at half MIC concentration after 24 hrs by crystal violet-based assay; type: functional, organism-based
Escherichia coli [33] = experiment: Antibacterial activity against Escherichia coli CCUG deficient in potE gene; type: functional, organism-based
Pseudomonas aeruginosa [34] = experiment: Antibiofilm activity against Pseudomonas aeruginosa PAO1 ATCC 15692 assessed as effect on biofilm 3D structures at half MIC concentration after 24 hrs by AO-staining based confocal microscopy; type: functional, organism-based
[35] = tested on: Stenotrophomonas maltophilia; experiment: Antibacterial activity against Stenotrophomonas maltophilia isolate 634/08 after 18 hrs by microdilution broth method; type: functional; conditions: isolate 634/08, 18 h
Pseudomonas aeruginosa [36] = experiment: Disruption of inner membrane integrity in Pseudomonas aeruginosa PAO1 ATCC 15692 co-expressing pMP2200::PrrnB plasmid assessed as induction of OPNG conversion at 256 ug/ml measured at 10 mins intervals for 1 hr; type: functional, organism-based
in vitro [37] = conditions: human, Caco-2; remark: listed apart in the source
Description: Efflux ratio of apparent permeability in human Caco2 cells at 10 uM after 120 mins by LC-MS/MS analysis

Escherichia coli [38] = experiment: Antibacterial activity against Escherichia coli CCUG assessed as inhibition of microbial growth at >32 ug/ml measured up to 48 hrs; type: functional, organism-based
Escherichia coli [39] = experiment: Disruption of Escherichia coli MG1655 ATCC 47076 outer membrane integrity assessed as induction of NPN uptake after 30 mins by NPN fluorescence-based assay; type: functional, organism-based; conditions: K-12 substr. MG1655 ATCC 47076
HeLa [40] = experiment: Cytotoxicity against human HeLa cells assessed as reduction in cell viability at 16 ug/ml after 24 hrs by celltox green-based assay
Escherichia coli [41] = experiment: Antibiofilm activity against Escherichia coli MG1655 ATCC 47076 at half MIC concentration after 24 hrs by crystal violet-based assay; type: functional, organism-based; conditions: K-12 substr. MG1655 ATCC 47076
Pseudomonas aeruginosa [42] = experiment: Disruption of Pseudomonas aeruginosa PAO1 ATCC 15692 outer membrane integrity assessed as induction of NPN uptake after 30 mins by NPN fluorescence-based assay; type: functional, organism-based
HeLa [43] = experiment: Cytotoxicity against human HeLa cells assessed as reduction in cell viability at 256 ug/ml after 24 hrs by celltox green-based assay relative to control
Acinetobacter baumannii [44] = experiment: Disruption of Acinetobacter baumannii ATCC 19606 outer membrane integrity assessed as induction of NPN uptake after 30 mins by NPN fluorescence-based assay; type: functional, organism-based; conditions: ATCC 19606 = CIP 70.34 = JCM 6841
Albumin [45] = target: T1, Albumin; experiment: Binding affinity to human serum albumin assessed as dissociation constant after 30 mins by fluorescence-based assay; type: ADME

T1 sequence (P02768 whole entry): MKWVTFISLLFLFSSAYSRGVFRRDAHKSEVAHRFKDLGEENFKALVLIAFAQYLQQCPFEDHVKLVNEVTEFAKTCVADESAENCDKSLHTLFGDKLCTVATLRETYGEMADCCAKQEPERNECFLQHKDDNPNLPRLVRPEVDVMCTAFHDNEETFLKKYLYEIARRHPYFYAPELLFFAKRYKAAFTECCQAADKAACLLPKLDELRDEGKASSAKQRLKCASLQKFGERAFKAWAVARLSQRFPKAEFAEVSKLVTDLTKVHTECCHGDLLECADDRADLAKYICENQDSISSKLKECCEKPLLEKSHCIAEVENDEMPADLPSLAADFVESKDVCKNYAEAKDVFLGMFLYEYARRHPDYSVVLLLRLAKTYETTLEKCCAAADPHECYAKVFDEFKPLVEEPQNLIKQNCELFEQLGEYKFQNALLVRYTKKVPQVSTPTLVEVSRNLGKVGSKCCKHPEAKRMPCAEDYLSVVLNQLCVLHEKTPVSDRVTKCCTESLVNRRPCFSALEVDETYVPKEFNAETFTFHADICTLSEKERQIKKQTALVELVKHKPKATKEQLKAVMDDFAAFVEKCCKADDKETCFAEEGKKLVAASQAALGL

- Papp A→B at 2 h, 10 µM (in vitro [1]): 0.19 ×10⁻⁶ cm/s
- Bmax (Albumin [3]): 14%
- MIC (Staphylococcus aureus): 2 µg/mL (≈ 2.37 µM)
- Papp at 5 h [7]: 1.6 ×10⁻⁶ cm/s
- MIC (Escherichia coli [8]): 2 µg/mL (≈ 2.37 µM)
- MIC (Streptococcus pyogenes): 1 µg/mL (≈ 1.18 µM)
- MIC (Enterococcus faecalis): 2 µg/mL (≈ 2.37 µM)
- MIC (Acinetobacter baumannii [13]): 8 µg/mL (≈ 9.46 µM)
- logD [14]: -0.79
- MIC (Klebsiella pneumoniae [16]): 2 µg/mL (≈ 2.37 µM)
- MIC (Bacillus spizizenii): 0.5 µg/mL (≈ 0.591 µM)
- Kd [17]: 0.11 µM
- MIC (Burkholderia cepacia): 16 µg/mL (≈ 18.9 µM)
- MIC (Pseudomonas aeruginosa [23]): 8 µg/mL (≈ 9.46 µM)
- remaining at 1 h, 50 µM [24]: > 99%
- MIC (Enterobacter cloacae): 1 µg/mL (≈ 1.18 µM)
- MIC (Klebsiella pneumoniae [28]): 2 µg/mL (≈ 2.37 µM)
- Bmax [29]: 30.2%
- MIC (Acinetobacter baumannii [30]): 2 µg/mL (≈ 2.37 µM)
- MIC [35]: 16 µg/mL (≈ 18.9 µM)
- efflux ratio at 2 h, 10 µM (in vitro [37]): 0.65
- Kd (Albumin [45]): 23.3 µM
Compound: N=C(N)NCCCCCCCCN(CCCCCCCCNC(=N)NCC1CC1)C(=O)N(CCCCCCCCNC(=N)N)CCCCCCCCNC(=N)NCC1CC1
- Activity (Acinetobacter baumannii [2]): inactive
- Activity (Acinetobacter baumannii [4]): inactive
- Activity (Escherichia coli [5]): inactive
- Activity (Escherichia coli [6]): Active
- growth inhibition (GI) (Escherichia coli [9]): inactive
- hemolysis at 0.5 h, 64 ug/ml [10]: 0 to 7%
- Ratio (Escherichia coli [11]): 2
- Activity (Escherichia coli [12]): Active
- Activity (Escherichia coli [15]): Active
- Activity (Escherichia coli [18]): Active
- Activity (Acinetobacter baumannii [19]): inactive
- Activity (Escherichia coli [20]): inactive
- Activity (Escherichia coli [21]): Active
- Activity (Escherichia coli [22]): inactive
- Activity (Escherichia coli [25]): Active
- Activity (Escherichia coli [26]): Active
- Activity (Escherichia coli [27]): Active
- Activity (Escherichia coli [31]): >=4 log10CFU/ml
- Activity (Pseudomonas aeruginosa [32]): inactive
- Activity (Escherichia coli [33]): Active
- Activity (Pseudomonas aeruginosa [34]): inactive
- Activity (Pseudomonas aeruginosa [36]): inactive
- Activity (Escherichia coli [38]): Active
- Activity (Escherichia coli [39]): Dose-dependent effect
- Activity (HeLa [40]): Non-Toxic
- Activity (Escherichia coli [41]): inactive
- Activity (Pseudomonas aeruginosa [42]): Dose-dependent effect
- Activity (HeLa [43]): <= 60%
- Activity (Acinetobacter baumannii [44]): Dose-dependent effect

- MIC (Staphylococcus aureus): 16 µg/mL (≈ 16.8 µM)
- MIC (Escherichia coli [8]): 16 µg/mL (≈ 16.8 µM)
- MIC (Streptococcus pyogenes): 2 µg/mL (≈ 2.1 µM)
- MIC (Enterococcus faecalis): 4 µg/mL (≈ 4.2 µM)
- MIC (Acinetobacter baumannii [13]): 8 µg/mL (≈ 8.39 µM)
- MIC (Klebsiella pneumoniae [16]): 4 µg/mL (≈ 4.2 µM)
- MIC (Bacillus spizizenii): 8 µg/mL (≈ 8.39 µM)
- MIC (Burkholderia cepacia): 32 µg/mL (≈ 33.6 µM)
- MIC (Pseudomonas aeruginosa [23]): 64 µg/mL (≈ 67.1 µM)
- MIC (Enterobacter cloacae): 4 µg/mL (≈ 4.2 µM)
- MIC (Klebsiella pneumoniae [28]): 4 µg/mL (≈ 4.2 µM)
- MIC (Acinetobacter baumannii [30]): 8 µg/mL (≈ 8.39 µM)
- MIC [35]: 8 µg/mL (≈ 8.39 µM)
Compound: N=C(NCCCCCCCCN(CCCCCCCCNC(=N)NCC1CC1)C(=O)N(CCCCCCCCNC(=N)NCC1CC1)CCCCCCCCNC(=N)NCC1CC1)NCC1CC1
- Activity (Acinetobacter baumannii [2]): inactive
- Activity (Acinetobacter baumannii [4]): inactive
- Activity (Escherichia coli [5]): inactive
- hemolysis at 0.5 h, 64 ug/ml [10]: 0 to 7%
- Activity (Acinetobacter baumannii [19]): inactive
- Activity (Escherichia coli [20]): inactive
- Activity (Pseudomonas aeruginosa [32]): inactive
- Activity (Pseudomonas aeruginosa [34]): inactive
- Activity (Pseudomonas aeruginosa [36]): inactive
- Activity (Escherichia coli [39]): Dose-dependent effect
- Activity (Escherichia coli [41]): inactive
- Activity (Pseudomonas aeruginosa [42]): Dose-dependent effect
- Activity (Acinetobacter baumannii [44]): Dose-dependent effect

- Papp at 5 h [7]: 0.06 ×10⁻⁶ cm/s
Compound: CO[C@H]1/C=C/O[C@@]2(C)Oc3c(C)c(O)c4c(O)c(c5c(nc6cc(C)ccn65)c4c3C2=O)NC(=O)/C(C)=C\C=C\[C@H](C)[C@H](O)[C@@H](C)[C@@H](O)[C@@H](C)[C@H](OC(C)=O)[C@@H]1C [RIFAXIMIN]
